{"source": "patent US20180265934A1", "about": "“COINCIDENCE REPORTER GENE SYSTEM” (The United States of America, as represented by the …, priority 2013, published 2018)", "key": {"[1]": {"test_system": "cAMP-response element (CRE), adenylyl cyclase signaling", "experiment": "Compound test, 24-point titration, 4×CRE-driven FLuc-P2A-RLuc (pCI-6.24), 384-well", "assay_type": "cell-based", "details": "PTC124 on FLuc, BTS on RLuc; relative to non-treated control", "description": "(§1) For the compound test, forskolin, PTC124 and BTS were prepared in a 24-point intraplate titration format and pre-diluted in the cell culture medium. Purified pCI-6.24 construct was transfected into GRIPTITE 293 MSR cells (Life Technologies). Sixteen hours post transfection, cells were trypsinized and then dispensed at 2,000 cells/15 μL/well in 384-well tissue culture treated white/solid bottom plates (Greiner Bio-One North America). Five μL of pre-diluted compound was transferred into assay plates, resulting in a final concentration ranging from 0.027 nM to 227 μM (forskolin) and 0.011 nM to 91 μM (PTC124 and BTS). The assay plates were incubated at 37° C. for 10 hours. FLuc and RLuc activities were then detected using DUAL-GLO reagent (Promega) and a VIEWLUX plate reader (PerkinElmer). Concentration-response curves and concentrations of half-maximal activity (EC50) for each compound were generated by using PRISM 4 software (GraphPad Software, Inc., La Jolla, Calif.)."}, "[2]": {"test_system": "PARK2 (Parkin) gene expression", "experiment": "Compound library screening, Parkin coincidence reporter cell line (FLuc-P2A-NLuc in PARK2 locus, BE(2)-M17 cells), 1536-well", "assay_type": "cell-based, human", "details": "24 h, titration", "description": "Construction of the Parkin coincidence reporter cell line by TALEN-mediated genome editing was carried out as follows. To generate a double-strand cleavage of the genomic DNA in the first codon of the PARK2 gene, constructs encoding transcription activator-like effector nuclease (TALEN) pairs (Right and Left) encoding components of the heterodimeric FokI nuclease were generated as described by Huang et al., Nature Biotechnology, 29: 699-700 (2011). The TALEN pair was designed to generate a double-strand cleavage at or near the first translation codon (ATG) within the Parkin gene. These constructs were transfected with Lipofectamine LTX (Life Technologies) into BE(2)-M17 cells (ATCC) […] along with a GFP-expressing marker plasmid and the coincidence reporter donor plasmid. After 48 hours of incubation in a tissue culture incubator, GFP-positive cells were sorted by FACS analysis and single clones were isolated and expanded. Once sufficient cell populations for each clone were achieved, analysis of correct genomic insertion of the Fluc-P2A-NLuc-PEST-PolyA coincidence reporter cassette that replaced the “ATGATAG” (SEQ ID NO: 362) sequence at the […] of the PARK2 gene exon 1 was ascertained by PCR and DNA sequencing of genomic DNA preparations (QIAGEN).\nCompound library screening in 1536-well plates was carried out as follows. The Parkin coincidence reporter cell line was seeded at a density of 2000 cell/well into white, solid bottom, tissue-culture treated (Greiner Bio-One), 1536-well microplates in a total of 5 μL/well of culture medium. After a 16 hour incubation in a tissue-culture incubator, a compound pin tool (Wako) was used to transfer 20 nL of compound dissolved in DMSO for library plates to the assay plates. Compounds were present in either a 6 or 12-point titration in the library plates. DMSO vehicle, CCCP, and PTC-124 were also added to the designated control well. After a 24 hour incubation in the tissue culture incubator, the volume in each well of both plates was reduced to 2 μL with a microplate aspiration system (BioTek) and then 2 μL of Firefly Luciferase assay reagent (Promega) was added to every well each plate and luminescent signal from each well of each plate was measured on a VIEWLUX plate reader (PerkinElmer). Following the first read, 2 μL of NanoLuc assay reagent (Promega) including a proprietary firefly luciferase inhibitor (to quench the firefly reaction) was added to every well of each plate. After a second 15 minute incubation at room temperature, the NanoLuc signal from each well of each plate was measured on the VIEWLUX. Raw luminescent signal is expressed as a % of the positive control (10 uM CCCP for NanoLuc and 500 nM PTC-124 for FLuc)."}, "[3]": {"test_system": "Parkin expression", "details": "previously demonstrated, Bouman et al. 2011; cited from earlier work"}, "[4]": {"test_system": "cAMP-response element (CRE) / CREB pathway", "experiment": "LOPAC1280 qHTS, 4×CRE-driven FLuc-P2A-RLuc coincidence reporter (pCI-6.24) in GripTite 293 MSR cells", "assay_type": "cell-based", "details": "for EC50: GripTite 293 MSR", "description": "This protocol measures bioluminescence derived from both FLuc and RLuc expression from a single assay. […] Sixteen hours after transfection, cells were trypsinized and then dispensed at 2,000 cells/20 μL/well in 384-well tissue culture treated white/solid bottom plates (Greiner Bio-One North America, Monroe, N.C.). The assay plates were incubated at 37° C. for 10 hours before adding the DUAL-GLO detection reagent (Promega). Luminescence from luciferase activity was detected by using a VIEWLUX plate reader (PerkinElmer, Waltham, Mass.).\nSixteen hours after transfection, cells were trypsinized and then dispensed at 500 cells/4 μL/well in 1,536-well tissue culture treated white/solid bottom plates (Greiner Bio-One North America) using a multidrop combi dispenser (Thermo Fisher Scientific). […] The assay plates were incubated at 37° C. for 10 hours before adding the DUAL-GLO detection reagent (3.5 μL+3.5 μL for each well) (Promega). Luminescence from luciferase activity was detected by using VIEWLUX (PerkinElmer). Each experimental plate contained forskolin as a positive control and DMSO as a negative control. Percentage activity was defined as the percentage signal relative to forskolin (100%) and DMSO (0%)."}, "[5]": {"test_system": "SV40 promoter", "experiment": "Compound test, SV40-driven FLuc-P2A-RLuc construct (pCI-6.20)", "assay_type": "cell-based", "details": "pCI-6.20 construct", "description": "as §1\nThis experiment was repeated with cells transfected with the pCl-6.20 construct, which encoded FLuc-P2A-RLuc under the control of the SV40 […]."}, "[6]": {"test_system": "p53 RE", "experiment": "FLuc2P-NLucP reporter assay, p53 RE-driven construct (pCI-4.38) in HEK293 cells", "assay_type": "cell-based", "details": "10 μM etoposide, 24 h", "description": "(§2) The FLuc2P-NLucP reporter assay and compound test was carried out as follows. This protocol measures bioluminescence derived from both FLuc2P and NLucP. The purified DNA construct pCI-4.38 was transfected into HEK293 cells and the cells were cultured as described in Example 1. Sixteen hours after transfection, the cells were trypsinized and then dispensed at 2,000 cells/20 μL/well into two 384-well tissue culture treated white/solid bottom plates (Greiner Bio-One North America). After adding Etoposide (Sigma) or control DMSO, the assay plates were incubated at 37° C. for 24 hours before adding the ONE-GLO or NANO-GLO detection reagents (Promega). Luminescence from luciferase activity was detected by using a VIEWLUX plate reader (PerkinElmer)."}, "[7]": {"test_system": "ARE", "experiment": "FLuc2P-NLucP reporter assay, ARE-driven construct (pCI-4.37) in HEK293 cells", "assay_type": "cell-based", "details": "100 μM tBHQ, 24 h", "description": "as §2, with “A” for “The”, “pCI-4.37” for “pCI-4.38”, “cells.” for “cells and the cells were cultured as described in Example 1.”, “and” for “and then”, “tert-Butylhydroquinone (tBHQ)” for “Etoposide”"}}, "note": "Read-outs that look alike come from different tables or passages of the source. Where a SMILES comes first, the peptide text is derived from it. The star is where a group is joined. Cbz = O=C(OCc1ccccc1)*", "data": [{"compound": "Cc1ccc(S(=O)(=O)NCc2ccccc2)cc1", "note": "[BTS]", "values": [{"measurement": "effect on reporter activity by reporter stabilization", "setting": "[1]", "value": "increase the activity of the reporters"}]}, {"compound": "CC(C)C[C@@H](C=O)NC(=O)[C@H](CC(C)C)NC(=O)[C@H](CC(C)C)NC(=O)OCc1ccccc1", "note": "[MG-132] (Cbz-Leu-Leu-Leu-aldehyde)", "values": [{"measurement": "coincident reporter response (FLuc and NLuc)", "setting": "[2]", "value": "do not elicit a coincident reporter response"}, {"measurement": "signal obtained through reporter interference", "setting": "[2]", "value": "NLuc signal is obtained through reporter interference"}]}, {"compound": "O=C(O)c1cccc(-c2noc(-c3ccccc3F)n2)c1", "note": "[PTC124]", "values": [{"measurement": "effect on reporter activity by reporter stabilization", "setting": "[1]", "value": "increase the activity of the reporters"}, {"measurement": "coincident reporter response (FLuc and NLuc)", "setting": "[2]", "value": "do not elicit a coincident reporter response"}, {"measurement": "signal obtained through reporter interference", "setting": "[2]", "value": "FLuc signal is obtained through reporter interference"}]}, {"compound": "O=c1c(O)c(-c2ccc(O)c(O)c2)oc2cc(O)cc(O)c12", "note": "[Quercetin]", "values": [{"measurement": "coincident reporter response (FLuc and NLuc)", "setting": "[2]", "value": "elicits a coincidence response from both FLuc and NLuc"}, {"measurement": "modulation of endogenous Parkin expression", "setting": "[2]", "value": "genuine modulator of endogenous Parkin expression"}]}, {"compound": "Oc1ccc(C=Cc2cc(O)cc(O)c2)cc1", "note": "[Resveratrol]", "values": [{"measurement": "coincident reporter response (FLuc and NLuc)", "setting": "[2]", "value": "do not elicit a coincident reporter response"}, {"measurement": "signal obtained through reporter interference", "setting": "[2]", "value": "FLuc signal is obtained through reporter interference"}]}, {"compound": "N#CC(C#N)=NNc1cccc(Cl)c1", "note": "[carbonyl cyanide m-chlorophenyl hydrazone]", "values": [{"measurement": "induction of Parkin expression", "setting": "[3]", "value": "induce Parkin expression"}]}, {"compound": "C=C[C@@]1(C)CC(=O)[C@]2(O)[C@@]3(C)[C@@H](O)CCC(C)(C)[C@@H]3[C@H](O)[C@H](OC(C)=O)[C@@]2(C)O1", "note": "[cpd 19, Forkskolin]", "values": [{"measurement": "Ratio F/R", "setting": "[4]; FLuc EC50 / RLuc EC50, Table 5", "value": 0.90}, {"measurement": "EC50", "setting": "[4]; 10 h, Table 5, coincident activators, FLuc readout, 10 h, ~4 nM to 57 μM, read-out: FLuc EC50", "value": 1.32, "unit": "µM"}, {"measurement": "EC50", "setting": "[4]; 10 h, Table 5, coincident activators, RLuc readout, 10 h, ~4 nM to 57 μM, read-out: RLuc EC50", "value": 1.47, "unit": "µM"}, {"measurement": "EC50", "setting": "[4]; FLuc readout, 1536 interplate format, read-out: Intraplate Forskolin Control Mean", "value": 0.86, "unit": "µM"}, {"measurement": "EC50", "setting": "[4]; RLuc readout, 1536 interplate format, read-out: Intraplate Forskolin Control Mean", "value": 0.88, "unit": "µM"}, {"measurement": "activity where reporter expression was driven by the SV40 promoter", "setting": "[5]", "value": "inactive"}]}, {"compound": "COc1cc([C@@H]2c3cc4c(cc3[C@@H](O[C@@H]3O[C@@H]5CO[C@@H](C)O[C@H]5[C@H](O)[C@H]3O)[C@H]3COC(=O)[C@H]23)OCO4)cc(OC)c1O", "note": "[etoposide, Etoposide]", "values": [{"measurement": "reporter output vs DMSO", "setting": "[6]", "value": "greater RLU values"}]}, {"compound": "CC(C)(C)c1cc(O)ccc1O", "note": "[tBHQ, tert-Butylhydroquinone]", "values": [{"measurement": "reporter output vs DMSO", "setting": "[7]", "value": "greater RLU values"}]}, {"compound": "Tunicamycin", "values": [{"measurement": "induction of Parkin expression", "setting": "[3]", "value": "induce Parkin expression"}]}]}
